# From publication PMC11638965, “Leveraging Dual-Ligase Recruitment to Enhance Protein Degradation via a Heterotrivalent Proteolysis Targeting Chimera” (Journal of the American Chemical Society, 2024)
# Several values for one entry are separate records, joined by “and”; a condition that tells them apart may be missing. Equal entries are not always repeated. Entries after “also recorded” stand apart in the source; their conditions may differ. Where two headings read alike, the source gives them in different places.
# How the values were obtained:
# BRD4 = BRD4 (Homo sapiens, UniProt O60885); test: Live cell kinetic HiBiT degradation assay, HiBiT-BRD4 HEK293 cells (parental, CRBN KO, VHL KO); assay type: cell-based; conditions: for λmax BRD4 (degradation rate): HiBiT-BRD4 knock-in HEK293 cells; for on-target BRD4 degradation activity (in words): parental, CRBN KO and VHL KO HiBiT-BRD4 HEK293 cells (Figure S5)
# Procedure, shortened: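 Endogenous N-terminal HiBiT-BRD4 HEK293 cells stably expressing LgBiT (parental, CRBN KO, VHL KO) in CO2-independent medium with Endurazine, pre-equilibrated 3 h at 37 °C. Luminescence read every 7 min for 24 h after PROTAC addition (threefold series), normalized to pre-read and DMSO. Dmax = lowest reading; rate from one-phase decay; Dmax50 from Dmax-vs-concentration fit.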
# RKO WT cells = test: cells; assay type: cell-based, human; conditions: for EC50: Homo sapiens
# [1] = HiBiT-BRD4 CRISPR knock-in HEK293 cells, live cell kinetic degradation, 24 h, read-out: Dmax 50 BRD4
# [2] = WT RKO, 316 pM to 10 μM, n = 3 (Table S4), read-out: EC50 RKO
# [3] = 72 h, 316 pM to 10 μM, 3 days, n = 3 (Figures 5 and 8C, Table S5), read-out: EC50 RKO WT
# [4] = 72 h, 500 pM to 10 μM, 3 days (Figure 10, Table S6), read-out: EC50 RKO WT
smiles,measurement,setting,value
"Cc1ncsc1-c1ccc([C@H](C)NC(=O)[C@@H]2C[C@@H](O)CN2C(=O)[C@@H](NC(=O)COCC(C)(COCCOCCOCCNc2cccc3c2C(=O)N(C2CCC(=O)NC2=O)C3=O)COCCOCCOCCOC(=O)C[C@@H]2N=C(c3ccc(Cl)cc3)c3c(sc(C)c3C)-n3c(C)nnc32)C(C)(C)C)cc1 (mixture of isomers) [AB3066 (24), (17S)-11-((2-(2-(2-((2-(2,6-dioxopiperidin-3-yl)-1,3-dioxoisoindolin-4-yl)amino)ethoxy)ethoxy)ethoxy)methyl)-17-((2S,4R)-4-hydroxy-2-(((S)-1-(4-(4-methylthiazol-5-yl)phenyl)ethyl)carbamoyl)pyrrolidine-1-carbonyl)-11,18,18-trimethyl-15-oxo-3,6,9,13-tetraoxa-16-azanonadecyl 2-((S)-4-(4-chlorophenyl)-2,3,9-trimethyl-6H-thieno[3,2-f][1,2,4]triazolo[4,3-a][1,4]diazepin-6-yl)acetate]",EC50,BRD4; [1],3 nM
same,λmax BRD4 (degradation rate),BRD4,2.16 h⁻¹
same,EC50,RKO WT cells; [2],151 nM
"Cc1ncsc1-c1ccc([C@H](C)NC(=O)[C@@H]2C[C@@H](O)CN2C(=O)[C@@H](NC(=O)COCC(C)(COCCOCCOCCNc2cc3c(cc2F)C(=O)N(C2CCC(=O)NC2=O)C3=O)COCCOCCOCCOC(=O)C[C@@H]2N=C(c3ccc(Cl)cc3)c3c(sc(C)c3C)-n3c(C)nnc32)C(C)(C)C)cc1 (mixture of isomers) [AB3067 (27), (17S)-11-((2-(2-(2-((2-(2,6-dioxopiperidin-3-yl)-6-fluoro-1,3-dioxoisoindolin-5-yl)amino)ethoxy)ethoxy)ethoxy)methyl)-17-((2S,4R)-4-hydroxy-2-(((S)-1-(4-(4-methylthiazol-5-yl)phenyl)ethyl)carbamoyl)pyrrolidine-1-carbonyl)-11,18,18-trimethyl-15-oxo-3,6,9,13-tetraoxa-16-azanonadecyl 2-((S)-4-(4-chlorophenyl)-2,3,9-trimethyl-6H-thieno[3,2-f][1,2,4]triazolo[4,3-a][1,4]diazepin-6-yl)acetate]",fold less Dmax 50 for BRD4 degradation in CRBN KO than in parent HiBiT-BRD4 cells,BRD4; CRBN KO vs parental,60 fold
same,EC50,BRD4; [1],0.6 nM and 0.64 nM
same,λmax (HiBiT-BRD4: CRBN KO),BRD4; HiBiT-BRD4 HEK293 CRBN KO cells (Figure 9),1.0 h⁻¹
same,EC50,"BRD4; HiBiT-BRD4 HEK293 CRBN KO cells, 5 pM to 3 μM (Figure 9), read-out: Dmax 50 (HiBiT-BRD4: CRBN KO)",38 nM
same,λmax (HiBiT-BRD4: VHL KO),BRD4; HiBiT-BRD4 HEK293 VHL KO cells (Figure 9),1.2 h⁻¹
same,EC50,"BRD4; HiBiT-BRD4 HEK293 VHL KO cells, 5 pM to 3 μM (Figure 9), read-out: Dmax 50 (HiBiT-BRD4: VHL KO)",23 nM
same,λmax (HiBiT-BRD4: Parental),BRD4; HiBiT-BRD4 HEK293 parental cells (Figure 9),2.3 h⁻¹
same,λmax BRD4 (degradation rate),BRD4,2.68 h⁻¹
same,fold less Dmax 50 for BRD4 degradation in VHL KO than in parent HiBiT-BRD4 cells,BRD4; VHL KO vs parental,40 fold
same,EC50,RKO WT cells; [3],111 nM
same,EC50,RKO WT cells; [4],73 nM
same,EC50,"RKO WT cells; RKO WT, 316 pM to 10 μM, n = 6, combination: dBET6 and MZ1 each from 5 μM (Table S7), read-out: EC50 RKO",49 nM
same,EC50,RKO WT cells; [2],97.5 nM
same,cytotoxicity compared with 1:1 mixture of dBET6 and MZ1 (in words),"RKO WT cells; human, 3 days",more cytoxic than the 1:1 mixture of dBET6 and MZ1
Cc1ncsc1-c1ccc(CNC(=O)[C@@H]2C[C@@H](O)CN2C(=O)[C@@H](NC(=O)COCC(COCCOCCOCCNc2cc3c(cc2F)C(=O)N(C2CCC(=O)NC2=O)C3=O)(COCCOCCOCCOC(=O)C[C@@H]2N=C(c3ccc(Cl)cc3)c3c(sc(C)c3C)-n3c(C)nnc32)COCCOCCOCCOC(=O)C[C@@H]2N=C(c3ccc(Cl)cc3)c3c(sc(C)c3C)-n3c(C)nnc32)C(C)(C)C)cc1 (mixture of isomers) [AB3124 (86)],EC50,BRD4; [1],1.1 nM
same,treatment concentrations with observable hook-effect,BRD4; HiBiT-BRD4 HEK293 cells,≥ 333 nM
same,BRD4 degradation rate (in words),BRD4; HiBiT-BRD4 HEK293 cells (Figure S4),remarkably slow compared to the rapid degradation mediated by 27
same,Dmax,"BRD4; HiBiT-BRD4 HEK293 cells, read-out: final Dmax less than for 26 and 27",> 10%
same,EC50,RKO WT cells; [3],33 nM
"Cc1ncsc1-c1ccc(CNC(=O)[C@@H]2C[C@@H](O)CN2C(=O)[C@@H](NC(=O)COCC(C)(COCCOCCNc2cc3c(cc2F)C(=O)N(C2CCC(=O)NC2=O)C3=O)COCCOCCOC(=O)C[C@@H]2N=C(c3ccc(Cl)cc3)c3c(sc(C)c3C)-n3c(C)nnc32)C(C)(C)C)cc1 (mixture of isomers) [AB3125 (30), (14S)-8-((2-(2-((2-(2,6-dioxopiperidin-3-yl)-6-fluoro-1,3-dioxoisoindolin-5-yl)amino)ethoxy)ethoxy)methyl)-14-((2S,4R)-4-hydroxy-2-((4-(4-methylthiazol-5-yl)benzyl)carbamoyl)pyrrolidine-1-carbonyl)-8,15,15-trimethyl-12-oxo-3,6,10-trioxa-13-azahexadecyl 2-((S)-4-(4-chlorophenyl)-2,3,9-trimethyl-6H-thieno[3,2-f][1,2,4]triazolo[4,3-a][1,4]diazepin-6-yl)acetate]",fold increase in degradation of BRD4 (Dmax 50) vs matched pair,"BRD4; 23 vs 1, 26 vs 23, 30 vs 2, HiBiT-BRD4 HEK293 cells",6.7 fold
same,EC50,BRD4; [1],8.2 nM
same,λmax BRD4 (degradation rate),BRD4,1.76 h⁻¹
same,EC50,RKO WT cells; [2],369 nM
"Cc1ncsc1-c1ccc(CNC(=O)[C@@H]2C[C@@H](O)CN2C(=O)[C@@H](NC(=O)COCC(C)(COCCOCCNc2cc3c(cc2F)C(=O)N(C2CCC(=O)NC2=O)C3=O)COCCOCCOCCOC(=O)C[C@@H]2N=C(c3ccc(Cl)cc3)c3c(sc(C)c3C)-n3c(C)nnc32)C(C)(C)C)cc1 (mixture of isomers) [AB3126 (29), (17S)-11-((2-(2-((2-(2,6-dioxopiperidin-3-yl)-6-fluoro-1,3-dioxoisoindolin-5-yl)amino)ethoxy)ethoxy)methyl)-17-((2S,4R)-4-hydroxy-2-((4-(4-methylthiazol-5-yl)benzyl)carbamoyl)pyrrolidine-1-carbonyl)-11,18,18-trimethyl-15-oxo-3,6,9,13-tetraoxa-16-azanonadecyl 2-((S)-4-(4-chlorophenyl)-2,3,9-trimethyl-6H-thieno[3,2-f][1,2,4]triazolo[4,3-a][1,4]diazepin-6-yl)acetate]",EC50,BRD4; [1],4 nM
same,λmax BRD4 (degradation rate),BRD4,1.69 h⁻¹
same,EC50,RKO WT cells; [2],195 nM
"Cc1ncsc1-c1ccc([C@H](C)NC(=O)[C@@H]2C[C@H](O)CN2C(=O)[C@@H](NC(=O)COCC(C)(COCCOCCOCCNc2cc3c(cc2F)C(=O)N(C2CCC(=O)NC2=O)C3=O)COCCOCCOCCOC(=O)C[C@@H]2N=C(c3ccc(Cl)cc3)c3c(sc(C)c3C)-n3c(C)nnc32)C(C)(C)C)cc1 (mixture of isomers) [cis-AB3067 (94), (17S)-11-((2-(2-(2-((2-(2,6-dioxopiperidin-3-yl)-6-fluoro-1,3-dioxoisoindolin-5-yl)amino)ethoxy)ethoxy)ethoxy)methyl)-17-((2S,4S)-4-hydroxy-2-(((S)-1-(4-(4-methylthiazol-5-yl)phenyl)ethyl)carbamoyl)pyrrolidine-1-carbonyl)-11,18,18-trimethyl-15-oxo-3,6,9,13-tetraoxa-16-azanonadecyl 2-((S)-4-(4-chlorophenyl)-2,3,9-trimethyl-6H-thieno[3,2-f][1,2,4]triazolo[4,3-a][1,4]diazepin-6-yl)acetate]",on-target BRD4 degradation activity (in words),BRD4; listed as 94,inactive in CRBN KO cells; also recorded: increase in degradation potency relative to 27 in both parental and VHL KO cells
same,EC50,RKO WT cells; [4],48 nM
"Cc1ncsc1-c1ccc([C@H](C)NC(=O)[C@@H]2C[C@H](O)CN2C(=O)[C@@H](NC(=O)COCC(C)(COCCOCCOCCNc2cc3c(cc2F)C(=O)N(C2CCC(=O)N(C)C2=O)C3=O)COCCOCCOCCOC(=O)C[C@@H]2N=C(c3ccc(Cl)cc3)c3c(sc(C)c3C)-n3c(C)nnc32)C(C)(C)C)cc1 (mixture of isomers) [neg-cis-AB3067 (95), (17S)-11-((2-(2-(2-((6-fluoro-2-(1-methyl-2,6-dioxopiperidin-3-yl)-1,3-dioxoisoindolin-5-yl)amino)ethoxy)ethoxy)ethoxy)methyl)-17-((2S,4S)-4-hydroxy-2-(((S)-1-(4-(4-methylthiazol-5-yl)phenyl)ethyl)carbamoyl)pyrrolidine-1-carbonyl)-11,18,18-trimethyl-15-oxo-3,6,9,13-tetraoxa-16-azanonadecyl 2-((S)-4-(4-chlorophenyl)-2,3,9-trimethyl-6H-thieno[3,2-f][1,2,4]triazolo[4,3-a][1,4]diazepin-6-yl)acetate]",on-target BRD4 degradation activity (in words),BRD4,no degradation of BRD4 in any of the cell lines
same,EC50,RKO WT cells; [4],594 nM
same,EC50,"RKO WT cells; RKO, span over RKO WT, CRBN KO, VHL KO and CRBN/VHL dKO (Figure 10), read-out: EC50s in each WT, KO and dKO RKO cell line",522 to 657 nM
